For 16 compounds, TGI and GI50 results are on record in PubChem BioAssay (NCI).

Among the test systems are ACHN renal; HCT-15 colon; KM12 colon; MALME-3M melanoma; MOLT-4 leukemia; SN12C renal; UACC-62 melanoma; HT29 colon.
Common to all, as to assay: NCI anticancer screen, dose series, 48 h

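These data come from cells grown in 96-well plates and exposed to compound for 48 hours at five concentrations. Here, GI50 denotes the concentration required for 50% inhibition of growth. TGI: concentration producing complete growth inhibition.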 Where only a bound is given, the exact number is not on record here.

`Cc1c2c(cc3c(=O)ccn(CCN(C)C)c13)c(=O)ccn2CCN(C)C`: the TGI is 26.3 µM with ACHN renal; 24.1 µM in the experiment on HCT-15 colon; 13.9 µM in the experiment on KM12 colon; 69.1 µM in the experiment on MALME-3M melanoma; 13.6 µM with MOLT-4 leukemia; 33.3 µM with SN12C renal. Also, the TGI in the experiment with UACC-62 melanoma is 31.6 µM.

`COc1cc(/C=C(\OC(C)=O)c2ccc3c(c2)OCO3)cc(OC)c1OC`: the TGI turned out to be 69.3 µM in the experiment with ACHN renal; 36.9 µM in the experiment on HCT-15 colon; 61.9 µM in the experiment with HT29 colon; 48.7 µM in the experiment on KM12 colon; 59.7 µM in the experiment with MALME-3M melanoma; 43.4 µM in the experiment on MOLT-4 leukemia. Moreover, the TGI in the experiment on SN12C renal is 88.1 µM; in the experiment with UACC-62 melanoma, 34.2 µM.

Take `O=C(c1ccc(Cl)cc1)c1ccc(OCCSCCCCCCCCCCSCCOc2ccc(C(=O)c3ccc(Cl)cc3)cc2)cc1`: the TGI with ACHN renal, with HCT-15 colon, in the experiment on HT29 colon, in the experiment on KM12 colon, with MALME-3M melanoma and in the experiment on MOLT-4 leukemia was above 100 µM each time. Moreover, the TGI with SN12C renal and in the experiment on UACC-62 melanoma was above 100 µM throughout.

Take `COc1cc(Nc2nc3ccc(C(F)(F)F)cc3nc2-c2ccccc2)cc(OC)c1OC`: the TGI in the experiment on ACHN renal is above 100 µM; in the experiment on HCT-15 colon, above 100 µM; with HT29 colon, 5.31 µM; in the experiment on KM12 colon, above 100 µM; in the experiment with MALME-3M melanoma, above 100 µM; in the experiment on MOLT-4 leukemia, above 100 µM. Moreover, the TGI with SN12C renal and with UACC-62 melanoma was above 100 µM in each case.

`Cc1ccc2c(c1)CNc1ccc(C)cc1CN2`: the TGI in the experiment on ACHN renal, in the experiment on HCT-15 colon, in the experiment with HT29 colon, in the experiment on KM12 colon, in the experiment on MOLT-4 leukemia and in the experiment on SN12C renal was above 100 µM in each case. In the experiment on UACC-62 melanoma, this compound displayed a TGI above 100 µM.

Consider `N#CC1CC2(C(=O)C1=O)c1ccccc1-c1ccccc12` (stereo not given), for which the TGI with ACHN renal, in the experiment with HCT-15 colon, in the experiment on HT29 colon, in the experiment on KM12 colon, in the experiment on MALME-3M melanoma and in the experiment with MOLT-4 leukemia was above 100 µM each time. Moreover, the TGI with SN12C renal and with UACC-62 melanoma was above 100 µM in each case.

Regarding `NNC(=O)/C(NC(=O)c1ccccc1)=C(\N)c1ccc(Cl)cc1`, the TGI with ACHN renal, with HCT-15 colon, in the experiment with HT29 colon, in the experiment on KM12 colon, with MALME-3M melanoma and with MOLT-4 leukemia was above 100 µM throughout. Besides, the TGI with SN12C renal and in the experiment on UACC-62 melanoma was above 100 µM in each case.

Take `C1COCCOCCOCCOCCO1.CC(=O)[CH-]C(C)=O.CC(=O)[CH-]C(C)=O.CC(=O)[CH-]C(C)=O.[V]`: the GI50 was 12 µM in the experiment on ACHN renal; 20.7 µM in the experiment on HCT-15 colon; 19.1 µM in the experiment with HT29 colon; 16.8 µM in the experiment on KM12 colon; 2.99 µM in the experiment with MALME-3M melanoma; 20.6 µM with MOLT-4 leukemia. In addition, the GI50 in the experiment with SN12C renal is 21.3 µM; in the experiment on UACC-62 melanoma, 4.25 µM. Also, the TGI with ACHN renal worked out at 44.1 µM; in the experiment on HCT-15 colon it was 57.9 µM; in the experiment on HT29 colon it was 37.4 µM; with KM12 colon, 37 µM; in the experiment with MALME-3M melanoma, 16.4 µM; in the experiment on MOLT-4 leukemia, 41.4 µM. Besides, the TGI was found to be 62.3 µM in the experiment on SN12C renal and 17.4 µM in the experiment on UACC-62 melanoma.

In the case of `O=c1c2ccccc2nc(-c2cccc(Cl)c2)n1NCC1(O)OCC(O)C(O)C1O` (stereo not given), the TGI with ACHN renal, with HCT-15 colon, in the experiment with HT29 colon, with KM12 colon, with MALME-3M melanoma and in the experiment on MOLT-4 leukemia was above 100 µM each time. The TGI in the experiment with SN12C renal and with UACC-62 melanoma was above 100 µM throughout.

As for `Cc1cccc(C)c1NC(=O)CCc1n[nH]c(=S)o1`, the TGI with ACHN renal, in the experiment with HCT-15 colon, in the experiment on HT29 colon, with KM12 colon, in the experiment with MALME-3M melanoma and with MOLT-4 leukemia was above 100 µM each time. In addition, the TGI with SN12C renal and with UACC-62 melanoma was above 100 µM throughout.

In the case of `Clc1ccc(Nc2ccnc(NCCCNc3ccnc4cc(Cl)ccc34)n2)cc1`, the GI50 in the experiment on ACHN renal is 1.57 µM; with HT29 colon, 1.29 µM. Further, the TGI in the experiment on ACHN renal was 3.04 µM; with HT29 colon, 2.83 µM.

Regarding `S=c1nc(N2CCCCC2)ss1`, the TGI in the experiment with ACHN renal amounted to 67 µM; in the experiment on HCT-15 colon, 62.6 µM; with HT29 colon it was 79.6 µM; in the experiment with KM12 colon it was 33.9 µM; in the experiment on MALME-3M melanoma, 35.6 µM; in the experiment with MOLT-4 leukemia it was 33.3 µM. Moreover, the results for the TGI in the experiment on SN12C renal and in the experiment with UACC-62 melanoma were 40.9 µM and 35.4 µM, respectively.

`CCOC(=O)/C(=C\c1ccc[nH]1)C(=O)c1ccccc1`: the TGI in the experiment on ACHN renal, with HCT-15 colon, with HT29 colon, with KM12 colon, in the experiment on MALME-3M melanoma and with MOLT-4 leukemia was above 100 µM each time. Moreover, the TGI with SN12C renal and in the experiment with UACC-62 melanoma was above 100 µM throughout.

`CC(=O)/C=C/c1ccc(C)cc1`: the TGI in the experiment with ACHN renal, in the experiment on HCT-15 colon, in the experiment on HT29 colon, in the experiment with KM12 colon, with MALME-3M melanoma and in the experiment on MOLT-4 leukemia was above 100 µM in each case. For the same compound, the TGI in the experiment on SN12C renal and in the experiment with UACC-62 melanoma was above 100 µM each time.

As for `CC(C)CN(CC(C)C)C(=O)C1CCCC[C@@H]1C(=O)O` (stereo not given in full), the TGI with ACHN renal, with HCT-15 colon, with HT29 colon, in the experiment with KM12 colon, in the experiment with MALME-3M melanoma and in the experiment with MOLT-4 leukemia was above 100 µM each time. The TGI in the experiment with SN12C renal and in the experiment with UACC-62 melanoma was above 100 µM each time.

As to `COc1cc2c(cn1)[nH]c1ccccc12`, the TGI in the experiment with ACHN renal, in the experiment on HCT-15 colon, with HT29 colon, with KM12 colon, in the experiment with MALME-3M melanoma and with MOLT-4 leukemia was above 100 µM throughout. For the same compound, the TGI in the experiment on SN12C renal and in the experiment on UACC-62 melanoma was above 100 µM throughout.
